Data as given in PMC4624780 (PLoS ONE, 2015).
Square brackets hold non-standard residues; d marks the D form. Peptide text beside a SMILES is read from it. Ahx = NCCCCCC(=O)O

Experiments:
[1] = test system: FMDV C-S8c1
[2] = test system: 3A N-terminal (1–52) peptide dimer; format: biochemical, foot-and-mouth disease virus (FMDV)

| Compound | inhibition of viral production [1] | reduction of viral yield at concentrations lower than 100 μM [1] | inhibition of viral production at 100 μM ([1]; 24 h, 100 μM) | intensity of the N-ter dimer band, immunoblotting with polyclonal antibody 479 [2] |
| --- | --- | --- | --- | --- |
| CC[C@H](C)[C@H](NC(=O)[C@H](CC(C)C)NC(=O)[C@@H]1CCCN1C(=O)[C@H](CCCNC(=N)N)NC(=O)[C@H](CC(C)C)NC(=O)[C@H](CCC(=O)O)NC(=O)CCCCCNC(=O)[C@H](CCCNC(=N)N)NC(=O)[C@H](CCCNC(=N)N)NC(=O)[C@H](CCCNC(=N)N)NC(=O)[C@H](CCCNC(=N)N)NC(=O)[C@H](CCCNC(=N)N)NC(=O)[C@H](CCCNC(=N)N)NC(=O)[C@@H](N)CCCNC(=N)N)C(=O)N[C@@H](CCC(N)=O)C(=O)N[C@@H](CCC(N)=O)C(N)=O [Peptide R7-α2] (H-RRRRRRR[Ahx]ELRPLIQQ-NH2; N-terminus assumed) | dose dependent inhibition | significant reductions | ca. 50% | – |
| ELRPLIQQ [α2] | – | – | – | impaired in vitro dimer formation |
| FFEGMVHDS [α1] | – | – | – | impaired in vitro dimer formation |
| RRRRRRRXFFEGMVHDS [Peptide R7-α1] | dose dependent inhibition | – | – | – |
